ChEMBL document CHEMBL2034878, “Chiral resolution, absolute configuration assignment and biological activity of racemic diarylpyrimidine CH(OH)-DAPY as potent nonnucleoside HIV-1 reverse transcriptase inhibitors” (Eur J Med Chem, 2012)

Legend:
[1] = tested on: Human immunodeficiency virus 1; test: Antiviral activity against HIV1 RES056 harboring K103N/Y181C RT mutant infected in MT4 cells assessed as inhibition of virus-induced cytopathic effect after 5 days by MTT assay; type: functional, organism-based; settings: Human immunodeficiency virus 1, RES056, MT4, 120 h
[2] = Cytotoxicity against human MT4 cells after 5 days by MTT assay; type: cell-based
[3] = tested on: Human immunodeficiency virus 2; test: Antiviral activity against HIV2 ROD […] infected in MT4 cells assessed as inhibition of virus-induced cytopathic effect after 5 days by MTT assay; type: functional, organism-based; settings: Human immunodeficiency virus 2, ISOLATE ROD, MT4, 120 h
[4] = tested on: Human immunodeficiency virus 1; test: Antiviral activity against HIV1 3B harboring wild type RT infected in MT4 cells assessed as inhibition of virus-induced cytopathic effect after 5 days by MTT assay; type: functional, organism-based; settings: Human immunodeficiency virus 1, 3B, MT4, 120 h
[5] = Selectivity index ratio of CC50 for human MT4 cells to EC50 for HIV1 3B; type: toxicity, cell-based; settings: read-out: Ratio CC50/EC50
[6] = biological target: Human immunodeficiency virus type 1 reverse transcriptase (Human immunodeficiency virus 1, UniProt Q72547); test: Inhibition of HIV1 wildtype reverse transcriptase using poly(rA)/oligo(dT)15 as template by colometric streptavidin alkaline phosphate reporter assay

Row | SMILES | EC50 [1] | CC50 at 120 h [2] | EC50 [3] | EC50 [4] | selectivity ratio [5] | IC50 [6]
1 | O=C1Nc2ccc(Cl)cc2[C@@](C#CC2CC2)(C(F)(F)F)O1 [EFAVIRENZ] | 0.44 µM | > 6.3 µM |  |  |  | 
2 | Cc1ccnc2c1NC(=O)c1cccnc1N2C1CC1 [NEVIRAPINE] |  | > 15 µM | > 15 µM |  |  | 
3 | N#Cc1ccc(Nc2nccc([C@H](O)c3ccccc3Cl)n2)cc1 | > 36 µM | 36 µM | > 36 µM | 0.005 µM | 6800 | 
4 | Cc1cc(C#N)cc(C)c1Oc1nc(Nc2ccc(C#N)cc2)nc(N)c1Br [ETRAVIRINE] |  | 28 µM | > 28 µM | 0.002 µM |  | 
5 | N#Cc1ccc(Nc2nccc([C@@H](O)c3ccccc3Cl)n2)cc1 | 8.8 µM | 25 µM | 11 µM | 0.065 µM | 373 | 
6 | Cc1cn([C@H]2C[C@H](N=[N+]=[N-])[C@@H](CO)O2)c(=O)[nH]c1=O [ZIDOVUDINE] |  | ≥ 46 µM | 0.007 µM |  | ≥ 6360 | 
7 | CC(C)Nc1cccnc1N1CCN(C(=O)c2cc3cc(NS(C)(=O)=O)ccc3[nH]2)CC1 [DELAVIRDINE] | > 4.39 µM | > 4.4 µM |  |  | > 274 | 
8 | N#Cc1ccc(Nc2nccc(C(O)c3ccccc3Cl)n2)cc1 (racemic) | 9.4 µM | 29 µM | 7.6 µM |  | 3230 | 0.45 µM
